Data as given in publication PMC4979471 (Cell Death Discovery, 2015).
Read-outs that look alike come from different tables or passages of the source.

Columns and labels:
Assay in all cases: Kinase selectivity, P33-radiolabeled assay
Format in all cases: biochemical
Settings in all cases: 10 μM ATP
[1] = biological target: T1, BMPR2 (Homo sapiens, UniProt Q13873)
T1 construct: purchased Reaction Biology Corp
T1 sequence (Q13873 27-1038): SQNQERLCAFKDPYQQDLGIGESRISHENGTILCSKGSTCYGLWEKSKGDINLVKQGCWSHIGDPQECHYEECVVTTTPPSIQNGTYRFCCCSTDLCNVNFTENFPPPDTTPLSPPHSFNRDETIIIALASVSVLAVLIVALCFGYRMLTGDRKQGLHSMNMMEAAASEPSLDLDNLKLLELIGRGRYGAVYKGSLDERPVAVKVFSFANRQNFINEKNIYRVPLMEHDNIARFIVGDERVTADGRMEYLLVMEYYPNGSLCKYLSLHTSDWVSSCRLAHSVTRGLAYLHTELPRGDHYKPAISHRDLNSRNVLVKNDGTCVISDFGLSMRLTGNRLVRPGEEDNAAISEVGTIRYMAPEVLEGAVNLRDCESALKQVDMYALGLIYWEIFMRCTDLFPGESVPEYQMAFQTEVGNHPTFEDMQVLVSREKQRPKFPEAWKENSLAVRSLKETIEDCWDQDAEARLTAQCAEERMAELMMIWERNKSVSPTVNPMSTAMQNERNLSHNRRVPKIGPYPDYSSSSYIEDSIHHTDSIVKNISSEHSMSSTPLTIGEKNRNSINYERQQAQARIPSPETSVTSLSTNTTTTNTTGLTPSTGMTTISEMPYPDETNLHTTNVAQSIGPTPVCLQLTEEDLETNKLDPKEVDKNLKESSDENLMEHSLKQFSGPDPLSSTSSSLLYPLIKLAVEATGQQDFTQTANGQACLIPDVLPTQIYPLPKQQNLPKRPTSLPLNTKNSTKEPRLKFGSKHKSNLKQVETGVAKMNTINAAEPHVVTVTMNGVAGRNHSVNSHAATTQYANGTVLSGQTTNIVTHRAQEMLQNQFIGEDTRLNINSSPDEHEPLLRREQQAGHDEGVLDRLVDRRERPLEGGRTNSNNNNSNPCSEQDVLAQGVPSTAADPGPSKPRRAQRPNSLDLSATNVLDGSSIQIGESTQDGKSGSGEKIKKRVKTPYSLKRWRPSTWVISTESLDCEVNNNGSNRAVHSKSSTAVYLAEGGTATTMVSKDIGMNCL
Outline: (§1)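 Values show % enzyme activity normalised to DMSO vehicle. They come from one 10 μM compound concentration run twice, at an ATP level of 10 μM.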

[2] = biological target: T2, LATS2 (Homo sapiens, UniProt Q9NRM7)
T2 construct: purchased Reaction Biology Corp
T2 sequence (Q9NRM7 1-1088): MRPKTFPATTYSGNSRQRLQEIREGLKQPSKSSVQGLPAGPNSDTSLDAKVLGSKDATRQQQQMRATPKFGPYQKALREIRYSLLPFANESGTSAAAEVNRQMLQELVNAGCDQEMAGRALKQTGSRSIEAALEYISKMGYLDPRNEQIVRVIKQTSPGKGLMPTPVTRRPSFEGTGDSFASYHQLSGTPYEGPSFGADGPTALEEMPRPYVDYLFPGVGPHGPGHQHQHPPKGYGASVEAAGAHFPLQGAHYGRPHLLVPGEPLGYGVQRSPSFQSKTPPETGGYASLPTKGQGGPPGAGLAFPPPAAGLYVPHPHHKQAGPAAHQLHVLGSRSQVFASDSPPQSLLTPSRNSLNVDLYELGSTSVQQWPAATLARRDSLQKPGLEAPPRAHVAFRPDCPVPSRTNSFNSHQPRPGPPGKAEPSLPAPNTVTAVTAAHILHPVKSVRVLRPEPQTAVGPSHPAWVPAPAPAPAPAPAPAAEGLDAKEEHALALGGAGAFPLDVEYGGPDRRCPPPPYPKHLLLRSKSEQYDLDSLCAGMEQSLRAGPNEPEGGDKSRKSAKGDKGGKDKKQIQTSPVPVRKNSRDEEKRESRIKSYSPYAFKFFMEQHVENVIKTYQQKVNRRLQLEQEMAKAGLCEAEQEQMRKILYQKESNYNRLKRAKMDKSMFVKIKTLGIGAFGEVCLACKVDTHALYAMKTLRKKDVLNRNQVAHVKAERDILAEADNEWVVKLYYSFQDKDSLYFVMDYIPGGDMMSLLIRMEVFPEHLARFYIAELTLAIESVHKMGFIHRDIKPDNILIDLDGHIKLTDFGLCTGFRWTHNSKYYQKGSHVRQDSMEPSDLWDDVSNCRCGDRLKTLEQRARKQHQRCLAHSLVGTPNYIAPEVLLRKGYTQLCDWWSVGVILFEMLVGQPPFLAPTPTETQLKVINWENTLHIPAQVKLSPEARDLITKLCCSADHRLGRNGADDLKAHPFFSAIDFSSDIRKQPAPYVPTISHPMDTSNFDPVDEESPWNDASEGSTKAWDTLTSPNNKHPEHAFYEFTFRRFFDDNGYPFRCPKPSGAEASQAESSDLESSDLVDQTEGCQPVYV
Outline: as §1

[3] = biological target: T3, PLK1 (Homo sapiens, UniProt P53350)
T3 construct: purchased Reaction Biology Corp
Outline: as §1

[4] = biological target: T4, SGK1 (Homo sapiens, UniProt O00141)
T4 construct: purchased Reaction Biology Corp
T4 sequence (O00141 1-431): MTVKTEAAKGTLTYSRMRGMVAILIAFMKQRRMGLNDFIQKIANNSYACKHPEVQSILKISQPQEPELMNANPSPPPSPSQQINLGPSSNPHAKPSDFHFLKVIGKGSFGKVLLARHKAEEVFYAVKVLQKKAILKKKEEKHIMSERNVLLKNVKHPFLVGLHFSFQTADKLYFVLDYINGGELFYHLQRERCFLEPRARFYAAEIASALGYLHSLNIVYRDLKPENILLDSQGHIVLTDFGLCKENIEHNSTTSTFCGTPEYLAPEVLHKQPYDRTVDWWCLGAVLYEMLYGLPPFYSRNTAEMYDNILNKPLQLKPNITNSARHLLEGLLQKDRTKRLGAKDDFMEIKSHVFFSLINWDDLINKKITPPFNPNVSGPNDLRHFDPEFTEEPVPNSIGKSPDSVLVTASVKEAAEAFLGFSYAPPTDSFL
Outline: as §1

[5] = read-out: % Enzyme Activity (relative to DMSO controls) AVG
[6] = read-out: % Enzyme Activity (relative to DMSO controls) Data 1
[7] = read-out: % Enzyme Activity (relative to DMSO controls) Data 2

T3 sequence (P53350 whole entry): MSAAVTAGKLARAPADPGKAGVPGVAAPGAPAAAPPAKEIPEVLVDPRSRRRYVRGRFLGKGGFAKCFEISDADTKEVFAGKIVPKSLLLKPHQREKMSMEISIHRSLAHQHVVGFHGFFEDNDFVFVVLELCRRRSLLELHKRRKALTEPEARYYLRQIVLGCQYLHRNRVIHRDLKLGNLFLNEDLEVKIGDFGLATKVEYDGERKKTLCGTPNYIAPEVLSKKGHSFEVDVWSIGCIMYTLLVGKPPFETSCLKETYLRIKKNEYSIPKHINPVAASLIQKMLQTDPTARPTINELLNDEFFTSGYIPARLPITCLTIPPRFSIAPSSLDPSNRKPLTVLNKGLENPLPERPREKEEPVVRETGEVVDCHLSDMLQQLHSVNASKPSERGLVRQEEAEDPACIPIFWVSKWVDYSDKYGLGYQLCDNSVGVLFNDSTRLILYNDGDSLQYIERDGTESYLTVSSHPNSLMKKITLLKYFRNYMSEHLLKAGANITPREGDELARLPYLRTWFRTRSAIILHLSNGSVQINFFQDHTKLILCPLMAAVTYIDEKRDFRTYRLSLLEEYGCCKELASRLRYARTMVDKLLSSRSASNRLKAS

CC(C)(C)C(=O)N1N=CC[C@H]1c1ccccc1 [GSK′963]
remaining activity at 10 µM [1, 5]: 103% | remaining activity at 10 µM [1, 6]: 102% | remaining activity at 10 µM [1, 7]: 103% | remaining activity at 10 µM [2, 5]: 117% | remaining activity at 10 µM [2, 6]: 112% | remaining activity at 10 µM [2, 7]: 121% | remaining activity at 10 µM [3, 5]: 103% | remaining activity at 10 µM [3, 6]: 105% | remaining activity at 10 µM [3, 7]: 101% | remaining activity at 10 µM [4, 5]: 99.7% | remaining activity at 10 µM [4, 6]: 99% | remaining activity at 10 µM [4, 7]: 100%
